Assay results published in patent US11780826B2 (Amgen Inc., priority 2017, dated 2023).

Columns and labels:
[1] = test system: Bovine cardiac myofibrils; assay: In vitro model of dose-dependent myofibril ATPase modulation (AC1.4, pyruvate kinase/lactate dehydrogenase-coupled ATPase assay at pCa25); type: biochemical; details: concentration at which ATPase activity was 1.4-fold higher than the bottom of the dose curve, mean of a minimum of two independent tests
Procedure, shortened: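 Detergent-skinned bovine cardiac myofibrils (typically 0.25-1.0 mg/ml) in Ca-buffered (EGTA/CaCl2) PK/LDH-coupled ATPase assay: 12 mM K-PIPES pH 6.80, 2 mM MgCl2, 1 mM ATP, 1 mM DTT, 0.5 mM NADH, 1.5 mM PEP. Hydrolysis followed at 340 nm; dose response fit to 4-parameter equation; AC1.4 is mean of ≥2 tests.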

Male CD rats [2] = assay: Pressure-volume loop (PV Loop) protocol (invasive hemodynamics): ejection fraction (% EF) during intravenous infusion, MEE; type: in vivo; design: unit not given here; details: exposure at 10% increase in % EF from baseline, rat, corrected for rat plasma protein binding
Description: (§1) Formulations: A compound as disclosed herein and water were admixed together. Either 30% wt/vol or 40% wt/vol of hydroxypropyl beta-cyclodextrin (HPBCD) was added and the mixture stirred until dissolved.
(§2) Echocardiography/ultrasound protocol: Serial echocardiography was conducted with the aid of an imaging system suitable for rodent cardiac ultrasound. Male CD rats (6-10 weeks of age; 6-12 animals per group) were cannulated with a jugular vein catheter to enable delivery of test article by intravenous infusion. […] An imaging probe was fixed in position to acquire short axis (SAX), motion (M)—mode images of the left cardiac ventricle at the level of the papillary muscles. Baseline data was acquired prior to initiating test article delivery. Test article (compound as disclosed herein in a HPBCD formulation), or vehicle control, was delivered with the aid of an infusion pump connected to the jugular vein catheter. Infusion rate of test article was increased at 15 min intervals, to a maximum of 5 mL/kg/hr. Ultrasound images were acquired at 5 min intervals. Additionally whole blood (not exceeding 10 uL) was collected via a tail nick at the same 5 min intervals for subsequent exposure determination.
(§3) Whole blood samples were analyzed by protein precipitation and liquid chromatography tandem mass spectrometry (LC-MS/MS) using multiple reaction monitoring (MRM) in positive ionization mode. The lower limit of quantitation (LLOQ) in the assay was 1 ng/mL and the upper limit of quantitation (ULOQ) was 10,000 ng/mL.
Pressure-volume loop (PV Loop) protocol (invasive hemodynamics): Left ventricular catheterization with a pressure-volume transducing catheter was applied as an alternative method to derive pharmacodynamic endpoints. A pressure volume conductance catheter was inserted via the left carotid artery and advanced into the left ventricle. The electrical signal emitted from the volume catheter was used to derive measures of relative volume at 5 min intervals. From these measures, left ventricular end diastolic volume (LVEDV) and left ventricular end systolic volume (LVESV) were derived. Ejection fraction was then derived using the following formula: % EF=((LVEDV−LVESV)/LVEDV)*100. Minimally efficacious exposure (MEE) was defined as the exposure at which a 10% increase in % EF from baseline was observed. The MEE was derived by plotting assayed exposures against % EF and using non-linear curve fitting (log(exposure) vs. % EF; variable slope, 4 parameters). Response to vehicle at each time point was averaged and all test article responses were normalized to baseline and subtracted from time matched (averaged) vehicle responses. Animal preparation, vehicle/test article delivery and blood sampling for exposure determination was as described in Echocardiography/ultrasound protocol.

Male CD rats [3] = assay: Echocardiography/ultrasound protocol: fractional shortening (% FS) during intravenous infusion, MEE; type: in vivo; design: unit not given here; details: Echocardiography, exposure at 10% increase in % FS from baseline, rat, formulation 40% HPbCD, corrected for rat plasma protein binding
Description: as §1, §2, §3
Offline data analysis of the SAX M-mode ultrasound images was conducted to derive measures of left ventricular end diastolic diameter (LVEDD), left ventricular end systolic diameter (LVESD) and subsequent calculation of fractional shortening (% FS) using the following formula: % FS=((LVEDD−LVESD)/LVEDD)*100. Minimally efficacious exposure (MEE) was defined as the exposure at which a 10% increase in % FS from baseline was observed. The MEE was derived by plotting assayed exposures against % FS and using non-linear curve fitting (log(exposure) vs. % FS; variable slope, 4 parameters). Response to vehicle at each time point was averaged and all test article responses were normalized to baseline and subtracted from time matched (averaged) vehicle responses.

Row | Compound | AC1.4 [1] | MEE* (unbound), minimally efficacious exposure (Male CD rats [2]; formulation 40% HPbCD pH 4 NaOH) | MEE* (unbound), minimally efficacious exposure (Male CD rats [2]; formulation 40% HPbCD) | MEE* (unbound), minimally efficacious exposure (Male CD rats [3])
1 | N#CC1CN(S(=O)(=O)N2CCC[C@H](C(=O)N3CCC[C@@H]3C(=O)NCc3ccc(C(F)(F)F)cc3)C2)C1 [Example 67, 1-(((3S)-1-((3-cyano-1-azetidinyl)sulfonyl)-3-piperidinyl)carbonyl)-N-(4-(trifluoromethyl)benzyl)-D-prolinamide] | 0.07786 µM | 1.05 |  | 
2 | N#CC1CN(S(=O)(=O)N2CCC[C@H](C(=O)N3CCC[C@@H]3C(=O)NCc3ccc(Cl)c(Cl)c3)C2)C1 [Example 91, 1-(((3S)-1-((3-cyano-1-azetidinyl)sulfonyl)-3-piperidinyl)carbonyl)-N-(3,4-dichlorobenzyl)-D-prolinamide] | 0.1384 µM |  | 0.04 | 
3 | CS(=O)(=O)c1cccc(C(=O)N2CCCC[C@@H]2C(=O)N[C@@H](c2cc(F)c(Cl)cc2F)C2CC2)c1 [Example 113, (2R)-N-((R)-(4-chloro-2,5-difluorophenyl)(cyclopropyl)methyl)-1-(3-(methylsulfonyl)benzoyl)-2-piperidinecarboxamide] | 0.1763 µM |  | 0.04 | 
4 | C[C@@H](NC(=O)[C@H]1CCCN1C(=O)[C@H]1CCCN(S(=O)(=O)N2CC(C#N)C2)C1)c1ccc(Cl)cc1 [Example 135, N-((1R)-1-(4-chlorophenyl)ethyl)-1-(((3S)-1-((3-cyano-1-azetidinyl)sulfonyl)-3-piperidinyl)carbonyl)-D-prolinamide] | 0.2215 µM |  | 0.05 | 
5 | N#CC1CN(S(=O)(=O)N2CCN[C@H](C(=O)N3CCC[C@@H]3C(=O)NCc3ccc(C(F)(F)F)cc3F)C2)C1 [Example 200, 1-(((2S)-4-((3-cyano-1-azetidinyl)sulfonyl)-2-piperazinyl)carbonyl)-N-(2-fluoro-4-(trifluoromethyl)benzyl)-D-prolinamide] | 0.4083 µM |  | 1.02 | 
6 | CS(=O)(=O)c1cncc(C(=O)N2[C@@H](C(=O)N[C@@H](c3cc(F)c(C(F)(F)F)cc3F)C3CC3)C[C@H]3C[C@H]32)c1 [Example 214, (1R,3R,5R)—N—((R)-cyclopropyl(2,5-difluoro-4-(trifluoromethyl)phenyl)methyl)-2-(5-(methylsulfonyl)nicotinoyl)-2-azabicyclo[3.1.0]hexane-3-carboxamide] | 0.4665 µM |  |  | 0.12
7 | N#CC1CN(S(=O)(=O)N2CCC[C@H](C(=O)N3CCC[C@@H]3C(=O)NCc3ccc(C(F)F)cc3)C2)C1 [Example 261, 1-(((3S)-1-((3-cyano-1-azetidinyl)sulfonyl)-3-piperidinyl)carbonyl)-N-(4-(difluoromethyl)benzyl)-D-prolinamide] | 0.6461 µM |  | 0.16 | 
8 | N#CC1CN(S(=O)(=O)N2CCC[C@H](C(=O)N3CCC[C@@H]3C(=O)NCc3cc(F)cc(F)c3)C2)C1 [Example 287, 1-(((3S)-1-((3-cyano-1-azetidinyl)sulfonyl)-3-piperidinyl)carbonyl)-N-(3,5-difluorobenzyl)-D-prolinamide] | 0.7212 µM |  | 0.47 | 
9 | C[C@@H](NC(=O)[C@H]1CCCN1C(=O)[C@H]1CCCN(S(=O)(=O)N2CC(C#N)C2)C1)c1ccc(F)c(F)c1 [Example 301, 1-(((3S)-1-((3-cyano-1-azetidinyl)sulfonyl)-3-piperidinyl)carbonyl)-N-((1R)-1-(3,4-difluorophenyl)ethyl)-D-prolinamide] | 0.7943 µM |  | 0.19 | 
10 | C[C@@H](NC(=O)[C@H]1CCCN1C(=O)[C@H]1CCCN(S(=O)(=O)N2CC(C#N)C2)C1)c1ccc(F)cc1F [Example 325, 1-(((3S)-1-((3-cyano-1-azetidinyl)sulfonyl)-3-piperidinyl)carbonyl)-N-((1R)-1-(2,4-difluorophenyl)ethyl)-D-prolinamide] | 0.8883 µM |  | 0.41 | 
11 | CS(=O)(=O)c1cccc(C(=O)N2C[C@@H](F)C[C@@H]2C(=O)N[C@@H](c2ccc(C(F)(F)F)cc2F)C2CC2)c1 [Example 402, (2R,4S)—N—((R)-cyclopropyl(2-fluoro-4-(trifluoromethyl)phenyl)methyl)-4-fluoro-1-(3-(methylsulfonyl)benzoyl)pyrrolidine-2-carboxamide] | 1.381 µM |  | 0.18 | 
12 | Cc1noc(C(=O)N2[C@@H](C(=O)N[C@@H](c3cc(F)c(C(F)(F)F)cc3F)C3COC3)C[C@H]3C[C@H]32)c1C [Example 824, (1R,3R,5R)-N-((R)-(2,5-difluoro-4-(trifluoromethyl)phenyl)(oxetan-3-yl)methyl)-2-(3,4-dimethylisoxazole-5-carbonyl)-2-azabicyclo[3.1.0]hexane-3-carboxamide] | 8.874 µM |  |  | 
13 | Cc1noc(C)c1C(=O)N1[C@@H](C(=O)N[C@@H](c2cc(F)c(C(F)(F)F)cc2F)C2COC2)C[C@H]2C[C@H]21 [Example 825, (1R,3R,5R)-N-((R)-(2,5-difluoro-4-(trifluoromethyl)phenyl)(oxetan-3-yl)methyl)-2-(3,5-dimethylisoxazole-4-carbonyl)-2-azabicyclo[3.1.0]hexane-3-carboxamide] | 9.3793 µM |  |  | 
14 | O=C(N[C@@H](c1cc(F)c(C(F)(F)F)cc1F)C1COC1)[C@H]1C[C@H]2C[C@H]2N1C(=O)c1cc(C(F)(F)F)no1 [Example 826, (1R,3R,5R)-N-((R)-(2,5-difluoro-4-(trifluoromethyl)phenyl)(oxetan-3-yl)methyl)-2-(3-(trifluoromethyl)isoxazole-5-carbonyl)-2-azabicyclo[3.1.0]hexane-3-carboxamide] | 2.628 µM |  |  | 
15 | CS(=O)(=O)c1cccc(C(=O)N2CCC[C@@H]2C(=O)N[C@@H](c2cc(F)c(C(F)(F)F)cc2F)[C@H]2C[C@@H](O)C2)c1 [Example 827, (R)-N-((R)-(2,5-difluoro-4-(trifluoromethyl)phenyl)((1s,3S)-3-hydroxycyclobutyl)methyl)-1-(3-(methylsulfonyl)benzoyl)pyrrolidine-2-carboxamide] | 0.15 µM |  |  | 
16 | CS(=O)(=O)c1cccc(C(=O)N2CCC[C@@H]2C(=O)N[C@@H](c2cc(F)c(C(F)(F)F)cc2F)[C@H]2C[C@H](O)C2)c1 [Example 828, (R)-N-((R)-(2,5-difluoro-4-(trifluoromethyl)phenyl)((lr,3R)-3-hydroxycyclobutyl)methyl)-1-(3-(methylsulfonyl)benzoyl)pyrrolidine-2-carboxamide] | 0.1639 µM |  |  | 
17 | CC1(O)CC([C@@H](NC(=O)[C@H]2C[C@H]3C[C@H]3N2C(=O)c2cccc(S(C)(=O)=O)c2)c2cc(F)c(C(F)(F)F)cc2F)C1 (stereo partly drawn) [Example 829, (1R,3R,5R)-N-((R)-(2,5-difluoro-4-(trifluoromethyl)phenyl)(3-hydroxy-3-methylcyclobutyl)methyl)-2-(3-(methylsulfonyl)benzoyl)-2-azabicyclo[3.1.0]hexane-3-carboxamide] | 1.702 µM |  |  | 
18 | O=C(N[C@@H](c1cc(F)c(C(F)(F)F)cc1F)[C@H]1C[C@H](O)C1)[C@H]1C[C@H]2C[C@H]2N1C(=O)c1ccnc(C(F)F)c1 [Example 831, (1R,3R,5R)-N-((R)-(2,5-difluoro-4-(trifluoromethyl)phenyl)((lr,3R)-3-hydroxycyclobutyl)methyl)-2-(2-(difluoromethyl)isonicotinoyl)-2-azabicyclo[3.1.0]hexane-3-carboxamide] | 0.6115 µM |  |  | 
